The source of these data is patent US4738982A, “HMG-CoA reductase inhibitors” (Merck & Co., Inc., priority 1986, dated 1988).

The target in this test is T1, HMG-CoA reductase (Rattus norvegicus, UniProt P51639).
T1 sequence (P51639 1-887): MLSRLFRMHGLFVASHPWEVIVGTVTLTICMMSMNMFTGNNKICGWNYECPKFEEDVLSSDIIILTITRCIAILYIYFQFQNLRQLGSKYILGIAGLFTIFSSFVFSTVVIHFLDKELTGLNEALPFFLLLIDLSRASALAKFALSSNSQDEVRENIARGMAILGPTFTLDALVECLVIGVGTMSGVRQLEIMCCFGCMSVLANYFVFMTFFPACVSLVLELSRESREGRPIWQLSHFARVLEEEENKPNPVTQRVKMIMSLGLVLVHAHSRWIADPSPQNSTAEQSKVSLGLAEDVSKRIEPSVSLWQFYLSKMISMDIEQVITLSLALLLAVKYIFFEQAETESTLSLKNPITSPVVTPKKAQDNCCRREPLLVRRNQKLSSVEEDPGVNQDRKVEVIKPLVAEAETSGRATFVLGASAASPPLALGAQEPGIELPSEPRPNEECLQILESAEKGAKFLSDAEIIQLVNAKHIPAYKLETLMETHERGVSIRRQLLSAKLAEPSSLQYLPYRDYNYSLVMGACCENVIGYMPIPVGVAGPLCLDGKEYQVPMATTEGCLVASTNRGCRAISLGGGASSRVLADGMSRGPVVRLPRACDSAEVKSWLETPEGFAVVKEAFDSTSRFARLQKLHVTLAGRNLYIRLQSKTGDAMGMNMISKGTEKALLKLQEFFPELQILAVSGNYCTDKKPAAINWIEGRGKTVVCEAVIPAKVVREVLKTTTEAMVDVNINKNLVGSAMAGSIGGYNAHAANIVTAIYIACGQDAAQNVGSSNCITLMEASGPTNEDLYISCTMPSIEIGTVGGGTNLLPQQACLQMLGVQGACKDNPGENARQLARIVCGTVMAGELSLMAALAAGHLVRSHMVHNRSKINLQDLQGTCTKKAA
The test can be described thus: intrinsic HMG-CoA reductase inhibition, in vitro protocol of J. Med. Chem., 1985, 28, page 347. Format: biochemical. The note with it: in vitro protocol described in J. Med. Chem., 1985, 28, page 347. As to the method:
The intrinsic HMG-CoA reductase inhibition activity of the claimed compounds is measured in the in vitro protocol described is J. Med. Chem., 1985, 28, page 347.

The structures appear in SMILES notation.

As a reminder, the IC50 is the midpoint of a concentration-inhibition curve. A high value points to weaker potency. `CC[C@H](C)C(=O)O[C@H]1C[C@@H](C)CC2=CC(O)[C@H](C)C(CC[C@@H](O)C[C@@H](O)CC(=O)O)=C21` (stereo partly shown) had an IC50 of 0.547 µM.
